Common to all, as to assay type: biochemical
In assay [1] the target is Recombinant human JAK1 catalytic domain (Homo sapiens (Human), UniProt P23458). In words: JAK1 kinase assay (Z'-LYTE, Tyr 6 Peptide). The note with it: read-out: IC50 in JAK1 kinase assay. The procedure:
(§1) JAK1/2/3 kinase assay are performed in vitro using Kit-Tyr 6 Peptide (Invitrogen, Cat. No. PV4122). TYK2 kinase assay are performed in vitro using Z′-LYTE™ Kinase Assay Kit-Tyr 3 Peptide (Invitrogen, Cat. No. PV3192). […] All compounds are initially tested at 8 different concentrations (1 μM down to 0.0003 μM) using a 1:3 serial dilution scheme.

Assay [2] addresses Recombinant human JAK2 catalytic domain (Homo sapiens (Human), UniProt O60674). Briefly: JAK2 kinase assay (Z'-LYTE, Tyr 6 Peptide). The procedure:
as §1

Assay [3] concerns the target Recombinant human JAK3 catalytic domain (Homo sapiens (Human), UniProt P52333). In words: JAK3 kinase assay (Z'-LYTE, Tyr 6 Peptide). The procedure:
as §1

Setting [4] is: read-out: IC50 in JAK2 kinase assay.
Where [5] appears, read: read-out: IC50 in JAK3 kinase assay.

Each structure is given as a SMILES string. Like-named read-outs stand apart in the source and are kept apart here.

The term IC50 denotes the concentration at which inhibition is half-maximal.

Sequence of Recombinant human JAK1 catalytic domain (P23458 875-1153): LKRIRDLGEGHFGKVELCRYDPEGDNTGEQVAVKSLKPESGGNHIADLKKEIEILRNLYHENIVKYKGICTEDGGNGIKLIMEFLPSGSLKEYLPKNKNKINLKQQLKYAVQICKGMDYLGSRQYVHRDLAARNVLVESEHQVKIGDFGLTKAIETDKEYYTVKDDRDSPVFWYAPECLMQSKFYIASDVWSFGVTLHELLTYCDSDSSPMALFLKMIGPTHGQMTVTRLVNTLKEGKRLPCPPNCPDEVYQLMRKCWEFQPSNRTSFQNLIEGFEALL
Sequence of Recombinant human JAK3 catalytic domain (P52333 822-1111): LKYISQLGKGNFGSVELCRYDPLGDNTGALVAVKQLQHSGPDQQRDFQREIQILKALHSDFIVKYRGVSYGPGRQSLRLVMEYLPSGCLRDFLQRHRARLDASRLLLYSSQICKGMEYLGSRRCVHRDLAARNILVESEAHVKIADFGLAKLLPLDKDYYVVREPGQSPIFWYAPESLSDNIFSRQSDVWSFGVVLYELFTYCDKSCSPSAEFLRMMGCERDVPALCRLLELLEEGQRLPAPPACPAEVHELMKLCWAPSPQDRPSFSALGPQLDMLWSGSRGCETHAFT
Sequence of Recombinant human JAK2 catalytic domain (O60674 849-1124): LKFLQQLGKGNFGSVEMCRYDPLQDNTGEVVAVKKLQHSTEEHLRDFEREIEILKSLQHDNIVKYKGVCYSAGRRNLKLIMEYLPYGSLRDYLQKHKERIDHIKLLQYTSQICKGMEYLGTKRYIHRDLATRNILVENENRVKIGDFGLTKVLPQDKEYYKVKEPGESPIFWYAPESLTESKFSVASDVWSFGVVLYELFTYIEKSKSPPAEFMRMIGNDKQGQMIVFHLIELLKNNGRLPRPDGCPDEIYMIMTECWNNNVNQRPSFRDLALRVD

Turning to `CN(c1ccc(S(=O)(=O)NC(C)(C)C)cn1)[C@@H]1CCN(c2ncnc3[nH]ccc23)C1` [Compound 238], the IC50 in assay [1] lay in the range of 1 to 100 nM.
For `CN(c1ccc(NS(C)(=O)=O)cn1)[C@@H]1CCN(c2ncnc3[nH]ccc23)C1` [Compound 217], the values for the IC50 in assay [1] and in assay [2] (setting [4]) were 1 to 100 nM and 100 to 1000 nM, respectively.
The corresponding values for `CN(c1ccc(Br)cn1)[C@@H]1CCN(c2ncnc3[nH]ccc23)C1` [Compound 68] are 1 to 100 nM and 100 to 1000 nM.
In the case of `CN(C(=O)CCc1c(Cl)cccc1Cl)[C@@H]1CCN(c2ncnc3[nH]ccc23)C1` [Compound 21], the IC50 in assay [1] lay within 1 to 100 nM.
The same measure, in the same setting: under `COCCNS(=O)(=O)c1ccc(N(C)[C@@H]2CCN(c3ncnc4[nH]ccc34)C2)nc1` [Compound 237] stands 1 to 100 nM.
As for `CN(c1cc2cn[nH]c2cn1)[C@@H]1CCN(c2ncnc3[nH]ccc23)C1` [Compound 125, (R)—N-(1-(7H-pyrrolo[2,3-d]pyrimidin-4-yl)pyrrolidin-3-yl)-N-methyl-1H-pyrazolo[3,4-c]pyridin-5-amine], the IC50 in assay [1] and in assay [2] (setting [4]) was 1 to 100 nM in each case.
For the molecule `CN(c1ccc(S(=O)(=O)N2CCCC2)cn1)[C@@H]1CCN(c2ncnc3[nH]ccc23)C1` [Compound 247], the IC50 in assay [1] was in the range of 1 to 100 nM.
For `N#Cc1ccc(N(CC2CC2)[C@@H]2CCN(c3ncnc4[nH]ccc34)C2)nc1` [Compound 124], the IC50 in assay [1] and in assay [2] (setting [4]) was 1 to 100 nM each time.
Take `CN(c1ccc(S(=O)(=O)Nc2ccc(F)cc2)cn1)[C@@H]1CCN(c2ncnc3[nH]ccc23)C1` [Compound 253]: the IC50 in assay [1] fell in the range of 1 to 100 nM.
For the molecule `C[C@H](O)CNS(=O)(=O)c1ccc(N(C)[C@@H]2CCN(c3ncnc4[nH]ccc34)C2)nc1` [Compound 245], the IC50 in assay [1] lay in the range of 1 to 100 nM.
`CN(C(=O)NC1CCOCC1)[C@@H]1CCN(c2ncnc3[nH]ccc23)C1` [Compound 36]: the IC50 in assay [1] is 1 to 100 nM.
For the molecule `CN(c1ccc(S(=O)(=O)NCCO)cn1)[C@@H]1CCN(c2ncnc3[nH]ccc23)C1` [Compound 243], the figures for the IC50 in assay [1] and in assay [2] (setting [4]) were 1 to 100 nM and 100 to 1000 nM, respectively.
For `CN(c1ccc(S(=O)(=O)NC2CCC[C@@H]2O)cn1)[C@@H]1CCN(c2ncnc3[nH]ccc23)C1` (stereo partly shown) [Compound 246], in assay [1], the IC50 lay within 1 to 100 nM.
For the molecule `CC(C)S(=O)(=O)Nc1ccc(N(C)[C@@H]2CCN(c3ncnc4[nH]ccc34)C2)nc1` [Compound 218], the IC50 in assay [1] lay in the range of 1 to 100 nM; in assay [2] (setting [4]) it was 100 to 1000 nM.
For the molecule `CN(c1ccc2nc[nH]c2n1)[C@@H]1CCN(c2ncnc3[nH]ccc23)C1` [Compound 163, (R)—N-(1-(7H-pyrrolo[2,3-d]pyrimidin-4-yl)pyrrolidin-3-yl)-N-methyl-3H-imidazo[4,5-b]pyridin-5-amine], the IC50 in assay [2] (setting [4]) was in the range of 1 to 100 nM; in assay [3] (setting [5]) it was 100 to 1000 nM.
As to `Cc1nc(N(C)[C@@H]2CCN(c3ncnc4[nH]ccc34)C2)ccc1C#N` [Compound 155], the IC50 in assay [1] and in assay [2] (setting [4]) was 1 to 100 nM in each case.
As to `CN(c1ccc(S(=O)(=O)N[C@@H]2c3ccccc3C[C@H]2O)cn1)[C@@H]1CCN(c2ncnc3[nH]ccc23)C1` [Compound 233], the IC50 in assay [1] was in the range of 1 to 100 nM.
As to `CN(c1ccc(C#N)cn1)[C@H]1CCN(c2ncnc3[nH]ccc23)C1` [Compound 102], the figures for the IC50 in assay [2] (setting [4]) and in assay [3] (setting [5]) were 1 to 100 nM and 100 to 1000 nM, respectively.
For the molecule `CN(c1ccc(-c2ccncc2)cn1)[C@@H]1CCN(c2ncnc3[nH]ccc23)C1` [Compound 144, (R)—N-(1-(7H-pyrrolo[2,3-d]pyrimidin-4-yl)pyrrolidin-3-yl)-N-methyl-3,4′-bipyridin-6-amine], in assay [1], the IC50 lay within 1 to 100 nM.
The same measure, in the same setting: the same measure for `CN(C(=O)N1CCCC1)[C@@H]1CCN(c2ncnc3[nH]ccc23)C1` [Compound 37]: 1 to 100 nM.
For `C#Cc1ccc(N(C)[C@@H]2CCN(c3ncnc4[nH]ccc34)C2)nc1` [Compound 162, (R)—N-(1-(7H-pyrrolo[2,3-d]pyrimidin-4-yl)pyrrolidin-3-yl)-5-ethynyl-N-methylpyridin-2-amine], the IC50 in assay [2] (setting [4]) and in assay [3] (setting [5]) was 1 to 100 nM throughout.
On to `CN(C(=O)Nc1ccc(C(F)(F)F)cc1)[C@@H]1CCN(c2ncnc3[nH]ccc23)C1` [Compound 30], for which the half-maximal inhibitory concentration (IC50) lay in the range of 1 to 100 nM in assay [1] and 100 to 1000 nM in assay [2] (setting [4]).
Consider `CN(c1ccc(C(=O)NC[C@H](O)c2ccccc2)cc1F)[C@@H]1CCN(c2ncnc3[nH]ccc23)C1` [Compound 202], for which the IC50 in assay [1] and in assay [2] (setting [4]) was 1 to 100 nM in each case.
For `CN(c1ccc(C#N)c(Br)c1)[C@@H]1CCN(c2ncnc3[nH]ccc23)C1` [Compound 114], the results for the IC50 in assay [2] (setting [4]) and in assay [3] (setting [5]) were 1 to 100 nM and 100 to 1000 nM, respectively.
For `CN(C(=O)Nc1cccc(C#N)c1)[C@@H]1CCN(c2ncnc3[nH]ccc23)C1` [Compound 16, (R)-1-(1-(7H-pyrrolo[2,3-d]pyrimidin-4-yl)pyrrolidin-3-yl)-3-(3-cyanophenyl)-1-methylurea], the results for the IC50 in assay [1] and in assay [2] (setting [4]) were 1 to 100 nM and 100 to 1000 nM, respectively.
For `CN(c1ccc(NS(=O)(=O)c2cccs2)cn1)[C@@H]1CCN(c2ncnc3[nH]ccc23)C1` [Compound 214], the IC50 in assay [1] was 1 to 100 nM.
The same measure, in the same setting: the same measure for `CN(C(=O)Nc1ccc(Cl)cc1)[C@@H]1CCN(c2ncnc3[nH]ccc23)C1` [Compound 33]: 1 to 100 nM.
Regarding `N#Cc1ccc(N[C@@H]2CCN(c3ncnc4[nH]ccc34)C2)nc1` [Compound 81], the values for the IC50 in assay [2] (setting [4]) and in assay [3] (setting [5]) were 1 to 100 nM and 100 to 1000 nM, respectively.
As to `CCS(=O)(=O)Nc1ccc(N(C)[C@@H]2CCN(c3ncnc4[nH]ccc34)C2)nc1` [Compound 210, (R)—N-(6-((1-(7H-pyrrolo[2,3-d]pyrimidin-4-yl)pyrrolidin-3-yl)(methyl)amino)pyridin-3-yl)ethanesulfonamide], the IC50 in assay [2] was in the range of 1 to 100 nM; in assay [3] it was 100 to 1000 nM.
`N#Cc1ccc(N(C2CC2)[C@@H]2CCN(c3ncnc4[nH]ccc34)C2)nc1` [Compound 41]: the IC50 in assay [2] (setting [4]) was 1 to 100 nM; in assay [3] (setting [5]), 100 to 1000 nM.
As for `CN(c1ccc(NS(=O)(=O)Cc2ccccc2F)cn1)[C@@H]1CCN(c2ncnc3[nH]ccc23)C1` [Compound 219], the IC50 in assay [1] lay in the range of 1 to 100 nM.
`CN(CCC#N)[C@@H]1CCN(c2ncnc3[nH]ccc23)C1` [Compound 64]: the results for the IC50 in assay [2] (setting [4]) and in assay [3] (setting [5]) were 1 to 100 nM and 100 to 1000 nM, respectively.
On to `CN(c1ccc(S(=O)(=O)N2CCNCC2)cn1)[C@@H]1CCN(c2ncnc3[nH]ccc23)C1` [Compound 251], for which the IC50 in assay [1] lay within 1 to 100 nM.
In the case of `CN(c1ncccc1C#N)[C@@H]1CCN(c2ncnc3[nH]ccc23)C1` [Compound 159], the values for the IC50 in assay [2] (setting [4]) and in assay [3] (setting [5]) were 1 to 100 nM and 100 to 1000 nM, respectively.
With `CN(c1ncc(C#N)cc1[N+](=O)[O-])[C@@H]1CCN(c2ncnc3[nH]ccc23)C1` [Compound 96], the IC50 in assay [2] (setting [4]) and in assay [3] (setting [5]) was 100 to 1000 nM throughout.
For the molecule `CN(c1cc(F)c(C#N)c(F)c1)[C@@H]1CCN(c2ncnc3[nH]ccc23)C1` [Compound 106], the IC50 in assay [1] is 1 to 100 nM.
As to `CN(c1ccc(C(=O)NCc2ccccc2)cc1F)[C@@H]1CCN(c2ncnc3[nH]ccc23)C1` [Compound 187], the IC50 fell in the range of 1 to 100 nM in assay [2] (setting [4]) and 100 to 1000 nM in assay [3] (setting [5]).
The corresponding values for `COC[C@H](NC(=O)c1ccc(N(C)[C@@H]2CCN(c3ncnc4[nH]ccc34)C2)nc1)c1ccccc1` [Compound 209] are 1 to 100 nM and 1 to 100 nM.
The matching figures for `C=CCN(C1CCCC1)[C@@H]1CCN(c2ncnc3[nH]ccc23)C1` [Compound 40]: 1 to 100 nM and 100 to 1000 nM.
The matching figures for `CN(c1c(F)cc(C(=O)N[C@@H](CO)c2ccccc2)cc1F)[C@@H]1CCN(c2ncnc3[nH]ccc23)C1` [Compound 208]: 1 to 100 nM and 1 to 100 nM.
In the case of `CN(c1ccc([N+](=O)[O-])cn1)[C@@H]1CCN(c2ncnc3[nH]ccc23)C1` [Compound 70], the IC50 in assay [2] (setting [4]) and in assay [3] (setting [5]) was 100 to 1000 nM in each case.
Consider `COC(=O)c1ccc(N(C)[C@@H]2CCN(c3ncnc4[nH]ccc34)C2)nc1` [Compound 168, (R)-methyl 6-((1-(7H-pyrrolo[2,3-d]pyrimidin-4-yl)pyrrolidin-3-yl)(methyl)amino)nicotinate], for which the IC50 in assay [2] (setting [4]) lay in the range of 1 to 100 nM; in assay [3] (setting [5]), 100 to 1000 nM.
The corresponding values for `CN(c1ccc(C(=O)N[C@H](CO)c2ccccc2)cn1)[C@@H]1CCN(c2ncnc3[nH]ccc23)C1` [Compound 174] are 1 to 100 nM and 100 to 1000 nM.
In the case of `Cc1cc(Cl)nc(N(C)[C@@H]2CCN(c3ncnc4[nH]ccc34)C2)c1C#N` [Compound 73], the IC50 in assay [2] (setting [4]) was 1 to 100 nM; in assay [3] (setting [5]), 100 to 1000 nM.
As to `CN(c1ccc(NS(=O)(=O)c2cccnc2)cn1)[C@@H]1CCN(c2ncnc3[nH]ccc23)C1` [Compound 215], the IC50 in assay [1] lay within 1 to 100 nM.
The same measure, in the same setting: under `C#CCN(c1cnc(C#N)cn1)[C@@H]1CCN(c2ncnc3[nH]ccc23)C1` [Compound 127] stands 1 to 100 nM.
As for `C#CCN(c1ccc(C#N)cc1)[C@@H]1CCN(c2ncnc3[nH]ccc23)C1` [Compound 131], the IC50 fell in the range of 1 to 100 nM in assay [2] (setting [4]) and 100 to 1000 nM in assay [3] (setting [5]).
`CN(c1cccc(C#N)c1)[C@@H]1CCN(c2ncnc3[nH]ccc23)C1` [Compound 119, (R)-3-((1-(7H-pyrrolo[2,3-d]pyrimidin-4-yl)pyrrolidin-3-yl)(methyl)amino)benzonitrile]: in assay [1], the IC50 fell in the range of 1 to 100 nM.
As to `CN(c1ccc(S(=O)(=O)NCc2ccc(F)cc2)cn1)[C@@H]1CCN(c2ncnc3[nH]ccc23)C1` [Compound 254], the IC50 in assay [1] was 1 to 100 nM.
In the case of `CN(c1ccccn1)[C@@H]1CCN(c2ncnc3[nH]ccc23)C1` [Compound 156], the results for the IC50 in assay [2] (setting [4]) and in assay [3] (setting [5]) were 1 to 100 nM and 100 to 1000 nM, respectively.
In the case of `CN(c1nc(Cl)c(C#N)cc1F)[C@@H]1CCN(c2ncnc3[nH]ccc23)C1` [Compound 87], the IC50 in assay [2] (setting [4]) lay within 1 to 100 nM; in assay [3] (setting [5]) it was 100 to 1000 nM.

Source of the values: patent US9346810B2, “Pyrrolopyrimidine compounds and uses thereof” (HUTCHISON MEDIPHARMA LIMITED, priority 2010, dated 2016).
